From patent US12390437B2, “Itaconic acid derivatives and uses thereof intreating an inflammatory disease or a disease associated with an undesirable immune response” (Sitryx Therapeutics Limited, priority 2019, dated 2025)

Columns and labels:
[1] = test system: IL-1β cytokine output from THP-1s; assay: THP-1 AlphaLISA IL-1β cytokine assay; assay type: cell-based, human; conditions: Homo sapiens, THP-1, PMA-differentiated THP-1 cells, LPS 24 hr then Nigericin 1 hour; read-out: IL-1β (IC50)
Outline: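 PMA-differentiated THP-1 cells (72 h) were pre-incubated 30 min with compound, then LPS-primed 24 h and pulsed with nigericin for 1 h at 37 °C. Supernatant cytokine was quantified by AlphaLISA; % inhibition was normalised to +/−LPS plate controls and IC50 taken from concentration-response curves.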

NRF2 = NRF2 +/-GSH activation assay (DiscoverX PathHunter NRF2 translocation kit, U2OS cells); assay type: cell-based; conditions: Homo sapiens, GSH condition not stated in Table 5; for Emax: U2OS, normalised to dimethyl fumarate 'High' control, read-out: NRF2 activation Emax; for EC50: U2OS PathHunter cells, 6 hours, read-out: NRF2 activation EC50
Outline: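 Percent activation, normalised to dimethyl fumarate (high) and vehicle (low) controls, was fitted for EC50 after 6 hours treatment of U2OS PathHunter cells. In the +GSH arm compounds were first pre-incubated 30 minutes in 6 mM working GSH; NRF2 translocation read by chemiluminescent complementation.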

[2] = Hepatocyte stability assay (mouse); assay type: in vitro ADME; conditions: cryopreserved hepatocytes, 10 μM compound, 0.5×10^6 cells/mL, 60 minutes, read-out: T½
Excerpt: (§1) Defrosted cryo-preserved hepatocytes (viability >70%) are used to determine the metabolic stability of a compound via calculation of intrinsic clearance (Clint; a measure of the removal of a compound from the liver in the absence of blood flow and cell binding). Clearance data are particularly important for in vitro work as they can be used in combination with in vivo data to predict the half-life and oral bioavailability of a drug.
(§2) The metabolic stability in hepatocytes assay involves a time-dependent reaction using both positive and negative controls. The cells must be pre-incubated at 37° C. then spiked with test compound (and positive control); samples taken at pre-determined time intervals are analysed to monitor the change in concentration of the initial drug compound over 60 minutes. A buffer incubation reaction (with no hepatocytes present) acts as a negative control and two cocktail solutions, containing compounds with known high and low clearance values (verapamil/7-hydroxycoumarin and propranolol/diltiazem), act as positive controls. • 1. The assay is run with a cell concentration of 0.5×10^6 cells/mL in Leibovitz buffer. • 2. All compounds and controls are run in duplicate. • 3. Compound concentration is 10 μM. • 4. All compounds and controls are incubated with both cells and buffer to show turnover is due to hepatic metabolism. • 5. All wells on the incubation plate will have 326.7 μL of either cells or buffer added. • 6. Prior to assay, cell and buffer-only incubation plates are preincubated for 10 mins at 37° C. • 7. The assay is initiated by adding compounds, 3.3 μL of 1 mM in 10% DMSO-90% Buffer; final DMSO concentration is 0.1%. • 8. Samples are taken at regular timepoints (0, 5, 10, 20, 40, 60 min) until 60 mins. • 9. Sample volume is 40 μL and it is added to 160 μL of crash solvent (acetonitrile with internal standard) and stored on ice. • 10. At the end of the assay, the crash plates are centrifuged at 3500 rpm for 20 mins at 4° C. • 11. 80 μL of clear supernatant is removed and mixed with 80 μL of deionised water before being analysed by LC-MS/MS.
(§3) Raw LC-MS/MS data are exported to, and analysed in, Microsoft Excel for determination of intrinsic clearance. The percentage remaining of a compound is monitored using the peak area of the initial concentration as 100%. Intrinsic clearance and half-life values are calculated using a graph of the natural log of percentage remaining versus the time of reaction in minutes. Half-life (min) and intrinsic clearance (Clint in μL min^−1 10^−6 cells) values are calculated using the gradient of the graph (the elimination rate constant, k) and Equations 1 and 2.

hepatocytes = assay: Hepatocyte stability assay (mouse); assay type: in vitro ADME; conditions: 10 μM compound, 0.5×10^6 cells/mL, 60 minutes
Excerpt: as §1, §2, §3

Structure (SMILES)	IC50 [1]	EC50 (NRF2)	half-life at 10 μM [2]	CIint (μL min^−1 10^−6 cells) (hepatocytes)	Emax (NRF2)
C=C(CC(=O)OCCCCCCCC)C(=O)OCCC(=O)O [Example 80, 3-((2-methylene-4-(octyloxy)-4-oxobutanoyl)oxy)propanoic Acid]	9.6 µM	21.5 µM	9 min	158 μL min^−1 10^−6 cells	229%
C=C(CC(=O)OCCCCCCCC)C(=O)OCC(=O)O [Example 49, 2-((2-methylene-4-(octyloxy)-4-oxobutanoyl)oxy)acetic acid]	7.2 µM	15.8 µM	10 min	138 μL min^−1 10^−6 cells	232%
C=C(CC(=O)OC(C)(C)CCCCCC)C(=O)OCC(=O)O [Example 192, 2-((2-methylene-4-((2-methyloctan-2-yl)oxy)-4-oxobutanoyl)oxy)acetic acid]	10.6 µM	11.8 µM	5 min	350 μL min^−1 10^−6 cells	194%
C=C(CC(=O)O[C@@H](C)CCCCCC)C(=O)OCCc1nnn[nH]1 [Example 129, (S)-1-(2-(1H-tetrazol-5-yl)ethyl) 4-octan-2-yl 2-methylenesuccinate]	5.5 µM	5.8 µM	4 min	378 μL min^−1 10^−6 cells	178%

Continued, in another order:

IC50 [1]	EC50 (NRF2)	half-life at 10 μM [2]	CIint (μL min^−1 10^−6 cells) (hepatocytes)	Structure (SMILES)	Emax (NRF2)
16.4 µM	29.4 µM	30 min	47 μL min^−1 10^−6 cells	C=C(CC(=O)OC1CCCCCCC1)C(=O)OCC(=O)O [Example 90, 2-((4-(cyclooctyloxy)-2-methylene-4-oxobutanoyl)oxy)acetic acid]	157%
14.8 µM	33.3 µM	14 min	107 μL min^−1 10^−6 cells	C=C(CC(=O)OC1CCCCCCC1)C(=O)OC(C)c1nnn[nH]1 (centres unmarked) [Example 133, 1-(1-(1H-tetrazol-5-yl)ethyl) 4-cyclooctyl 2-methylenesuccinate]	227%
25.2 µM	3.2 µM	7 min	297 μL min^−1 10^−6 cells	C=C(CC(=O)O[C@H](C)CCCCCC)C(=O)OCCC(=O)O [Example 88, (R)-3-((2-methylene-4-(octan-2-yloxy)-4-oxobutanoyl)oxy)propanoic acid]	139%
